The target of assay [1] is T1, MAGL (monoacylglycerol lipase) (Mus musculus, UniProt O35678).
T1 sequence (O35678 1-303): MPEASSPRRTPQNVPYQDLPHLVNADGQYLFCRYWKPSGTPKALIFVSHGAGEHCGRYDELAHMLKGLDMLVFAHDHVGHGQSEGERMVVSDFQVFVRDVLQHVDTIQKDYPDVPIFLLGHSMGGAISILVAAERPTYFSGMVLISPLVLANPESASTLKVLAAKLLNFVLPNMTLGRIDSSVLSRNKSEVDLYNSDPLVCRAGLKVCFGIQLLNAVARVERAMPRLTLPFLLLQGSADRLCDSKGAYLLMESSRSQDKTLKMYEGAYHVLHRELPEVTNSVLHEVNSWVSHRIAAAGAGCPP
The experiment in a line: gel-based competitive ABPP (FP-TAMRA, MB064) in mouse brain membrane proteome. The format is biochemical. The arrangement: gene Mgll; endogenous, mouse brain proteome.

In assay [2] the target is T2, hormone-sensitive lipase (HSL) (Homo sapiens, UniProt Q05469).
T2 construct: gene LIPE; full-length, C-terminal FLAG-tag, expressed in HEK293T
The assay can be described thus: gel-based competitive ABPP (FP-TAMRA) on HEK293T membranes expressing human HSL. It is filed as cell-based.

Assay [3] deals with T3, hormone-sensitive lipase (HSL) (Mus musculus, UniProt P54310).
T3 construct: gene Lipe; full-length, C-terminal FLAG-tag, expressed in HEK293T; endogenous in mouse tissue proteomes
T3 sequence (P54310 whole entry): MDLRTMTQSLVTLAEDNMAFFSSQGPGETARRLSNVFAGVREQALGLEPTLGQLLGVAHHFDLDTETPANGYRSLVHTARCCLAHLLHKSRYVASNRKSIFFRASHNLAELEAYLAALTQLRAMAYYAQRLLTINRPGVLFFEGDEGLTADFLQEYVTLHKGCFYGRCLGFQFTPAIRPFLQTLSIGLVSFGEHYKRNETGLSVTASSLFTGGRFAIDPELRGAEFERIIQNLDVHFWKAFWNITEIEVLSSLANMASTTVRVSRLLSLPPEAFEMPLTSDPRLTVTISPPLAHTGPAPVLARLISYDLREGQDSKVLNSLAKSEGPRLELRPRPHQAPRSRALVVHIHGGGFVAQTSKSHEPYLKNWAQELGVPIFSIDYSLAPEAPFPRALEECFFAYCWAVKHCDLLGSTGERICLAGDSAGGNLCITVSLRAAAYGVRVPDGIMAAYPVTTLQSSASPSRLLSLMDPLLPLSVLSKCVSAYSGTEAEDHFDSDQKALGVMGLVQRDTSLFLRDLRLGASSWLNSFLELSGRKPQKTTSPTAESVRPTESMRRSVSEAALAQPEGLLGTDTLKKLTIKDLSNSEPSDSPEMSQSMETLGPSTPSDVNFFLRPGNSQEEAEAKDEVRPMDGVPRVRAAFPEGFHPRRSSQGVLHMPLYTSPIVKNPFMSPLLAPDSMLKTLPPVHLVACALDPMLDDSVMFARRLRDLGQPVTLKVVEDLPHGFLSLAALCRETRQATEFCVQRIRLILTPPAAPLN
The assay can be described thus: MS chemical proteomics on mouse tissues; gel-based competitive ABPP on recombinant mouse HSL. It is filed as cell-based.

Assay [4] deals with T4, norepinephrine transporter(h) (Homo sapiens, UniProt P23975).
T4 construct: gene SLC6A2
T4 sequence (P23975 whole entry): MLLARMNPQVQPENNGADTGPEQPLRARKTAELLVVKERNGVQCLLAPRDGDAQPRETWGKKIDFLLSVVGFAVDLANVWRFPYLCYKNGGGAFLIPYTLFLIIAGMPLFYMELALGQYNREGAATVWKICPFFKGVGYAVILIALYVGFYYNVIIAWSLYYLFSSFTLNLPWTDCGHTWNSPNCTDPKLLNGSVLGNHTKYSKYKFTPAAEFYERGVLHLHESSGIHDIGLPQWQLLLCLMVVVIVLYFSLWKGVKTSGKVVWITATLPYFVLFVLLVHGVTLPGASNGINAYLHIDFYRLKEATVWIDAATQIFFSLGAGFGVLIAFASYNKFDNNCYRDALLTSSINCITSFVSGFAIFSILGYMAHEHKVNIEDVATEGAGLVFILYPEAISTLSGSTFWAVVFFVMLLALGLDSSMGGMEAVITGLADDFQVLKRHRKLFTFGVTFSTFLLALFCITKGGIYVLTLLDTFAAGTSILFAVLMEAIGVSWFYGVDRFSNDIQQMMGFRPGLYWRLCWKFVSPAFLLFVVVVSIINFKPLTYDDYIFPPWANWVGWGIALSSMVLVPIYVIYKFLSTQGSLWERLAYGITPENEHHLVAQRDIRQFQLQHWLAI
The assay can be described thus: biochemical. The arrangement: CEREP off-target panel, radioligand binding, inhibition of control specific binding. The following applies: read-out: % Inhibition of Control Specific Binding, Mean. The text has this:
(§1) Mass spectrometry (MS)-based chemical proteomics experiments emulated these findings (Fig. 3d).

The next assay deals with T5, dopamine transporter(h) (Homo sapiens, UniProt Q01959).
T5 construct: gene SLC6A3
The experiment in a line: biochemical. The arrangement: CEREP off-target panel, radioligand binding, inhibition of control specific binding. The following applies: read-out: % Inhibition of Control Specific Binding, Mean.
Description: as §1

The target of assay [5] is T6, H2(h) (antagonist radioligand) (Homo sapiens, UniProt P25021).
T6 construct: gene HRH2; antagonist radioligand
The experiment in a line: biochemical. The arrangement: CEREP off-target panel, radioligand binding, inhibition of control specific binding. The following applies: read-out: % Inhibition of Control Specific Binding, Mean.

Assay [6] deals with T7, 5-HT2B(h) (agonist radioligand) (Homo sapiens, UniProt P41595).
T7 construct: gene HTR2B; agonist radioligand
T7 sequence (P41595 whole entry): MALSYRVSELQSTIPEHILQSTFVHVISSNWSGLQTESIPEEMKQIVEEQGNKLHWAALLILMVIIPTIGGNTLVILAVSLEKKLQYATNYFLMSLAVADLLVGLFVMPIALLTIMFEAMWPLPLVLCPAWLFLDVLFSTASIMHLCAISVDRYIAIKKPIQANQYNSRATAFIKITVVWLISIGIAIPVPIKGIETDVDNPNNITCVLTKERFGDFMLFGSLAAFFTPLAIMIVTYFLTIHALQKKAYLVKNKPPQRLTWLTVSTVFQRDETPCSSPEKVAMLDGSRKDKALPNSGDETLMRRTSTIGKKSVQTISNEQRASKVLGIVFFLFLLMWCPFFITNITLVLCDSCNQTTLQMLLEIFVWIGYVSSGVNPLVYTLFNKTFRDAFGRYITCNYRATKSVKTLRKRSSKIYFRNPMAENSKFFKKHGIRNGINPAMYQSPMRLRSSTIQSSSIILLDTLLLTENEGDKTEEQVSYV
The assay can be described thus: biochemical. The following applies: read-out: % Inhibition of Control Specific Binding, Mean. The arrangement: CEREP off-target panel, radioligand binding, inhibition of control specific binding.

Assay [7] deals with T8, α2A(h) (antagonist radioligand) (Homo sapiens, UniProt P08913).
T8 construct: gene ADRA2A; antagonist radioligand
The experiment in a line: biochemical. The arrangement: CEREP off-target panel, radioligand binding, inhibition of control specific binding. The following applies: read-out: % Inhibition of Control Specific Binding, Mean.

Assay [8] concerns the target T9, 5-HT3(h) (antagonist radioligand) (Homo sapiens, UniProt P46098).
T9 construct: gene HTR3A; antagonist radioligand
The assay can be described thus: biochemical. The arrangement: CEREP off-target panel, radioligand binding, inhibition of control specific binding. The following applies: read-out: % Inhibition of Control Specific Binding, Mean.

For assay [9], the target named is T10, β1(h) (agonist radioligand) (Homo sapiens, UniProt P08588).
T10 construct: gene ADRB1; agonist radioligand
T10 sequence (P08588 whole entry): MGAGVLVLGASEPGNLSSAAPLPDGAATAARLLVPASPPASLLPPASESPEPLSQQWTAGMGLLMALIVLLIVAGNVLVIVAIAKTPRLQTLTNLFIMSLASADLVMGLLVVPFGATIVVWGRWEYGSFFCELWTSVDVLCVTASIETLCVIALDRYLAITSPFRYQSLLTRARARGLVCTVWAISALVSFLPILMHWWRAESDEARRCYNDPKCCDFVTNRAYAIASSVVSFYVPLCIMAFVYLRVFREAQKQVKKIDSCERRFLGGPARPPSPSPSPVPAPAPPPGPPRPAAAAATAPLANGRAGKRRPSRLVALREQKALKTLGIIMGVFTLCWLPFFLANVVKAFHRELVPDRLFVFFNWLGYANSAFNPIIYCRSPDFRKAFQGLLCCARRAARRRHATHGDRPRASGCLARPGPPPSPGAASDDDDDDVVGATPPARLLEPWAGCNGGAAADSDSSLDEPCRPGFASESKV
The experiment in a line: biochemical. The arrangement: CEREP off-target panel, radioligand binding, inhibition of control specific binding. The following applies: read-out: % Inhibition of Control Specific Binding, Mean.

Assay [10] addresses T11, β2(h) (antagonist radioligand) (Homo sapiens, UniProt P07550).
T11 construct: gene ADRB2; antagonist radioligand
The experiment in a line: biochemical. The arrangement: CEREP off-target panel, radioligand binding, inhibition of control specific binding. The following applies: read-out: % Inhibition of Control Specific Binding, Mean.

Assay [11] has as its target T12, M2 (h) (antagonist radioligand) (Homo sapiens, UniProt P08172).
T12 construct: gene CHRM2; antagonist radioligand
The assay can be described thus: biochemical. The arrangement: CEREP off-target panel, radioligand binding, inhibition of control specific binding. The following applies: read-out: % Inhibition of Control Specific Binding, Mean.

Assay [12] concerns the target T13, 5-HT1B (h) (antagonist radioligand) (Homo sapiens, UniProt P28222).
T13 construct: gene HTR1B; antagonist radioligand
The assay can be described thus: biochemical. The following applies: read-out: % Inhibition of Control Specific Binding, Mean. The arrangement: CEREP off-target panel, radioligand binding, inhibition of control specific binding.

Assay [13] concerns the target T14, α1A(h) (antagonist radioligand) (Homo sapiens, UniProt P35348).
T14 construct: gene ADRA1A; antagonist radioligand
The assay can be described thus: biochemical. The arrangement: CEREP off-target panel, radioligand binding, inhibition of control specific binding. The following applies: read-out: % Inhibition of Control Specific Binding, Mean.

Assay [14] concerns the target T15, CB1(h) (agonist radioligand) (Homo sapiens, UniProt P21554).
T15 construct: gene CNR1; agonist radioligand
The experiment in a line: biochemical. The arrangement: CEREP off-target panel, radioligand binding, inhibition of control specific binding. The following applies: read-out: % Inhibition of Control Specific Binding, Mean.

The target of assay [15] is T16, H1(h) (antagonist radioligand) (Homo sapiens, UniProt P35367).
T16 construct: gene HRH1; antagonist radioligand
T16 sequence (P35367 whole entry): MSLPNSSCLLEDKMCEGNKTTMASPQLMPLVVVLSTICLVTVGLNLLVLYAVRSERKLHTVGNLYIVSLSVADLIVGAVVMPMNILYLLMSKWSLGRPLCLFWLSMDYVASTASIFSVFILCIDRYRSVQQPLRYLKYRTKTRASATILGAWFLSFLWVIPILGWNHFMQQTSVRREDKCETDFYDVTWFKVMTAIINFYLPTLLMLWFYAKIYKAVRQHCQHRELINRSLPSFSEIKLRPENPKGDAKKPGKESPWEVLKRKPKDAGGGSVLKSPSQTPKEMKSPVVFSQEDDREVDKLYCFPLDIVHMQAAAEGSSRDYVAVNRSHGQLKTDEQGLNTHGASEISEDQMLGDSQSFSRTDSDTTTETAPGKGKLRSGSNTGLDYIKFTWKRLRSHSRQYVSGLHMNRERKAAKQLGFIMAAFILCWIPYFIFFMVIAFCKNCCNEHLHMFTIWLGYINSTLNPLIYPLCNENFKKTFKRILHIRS
The assay can be described thus: biochemical. The following applies: read-out: % Inhibition of Control Specific Binding, Mean. The arrangement: CEREP off-target panel, radioligand binding, inhibition of control specific binding.

Assay [16] concerns the target T17, GR (h) (agonist radioligand) (Homo sapiens, UniProt P04150).
T17 construct: gene NR3C1; agonist radioligand
The experiment in a line: biochemical. The arrangement: CEREP off-target panel, radioligand binding, inhibition of control specific binding. The following applies: read-out: % Inhibition of Control Specific Binding, Mean.

Here are results for one compound from PMC10698032, “A monoacylglycerol lipase inhibitor showing therapeutic efficacy in mice without central side effects or dependence” (Nature Communications, 2023).

T11 sequence (P07550 whole entry): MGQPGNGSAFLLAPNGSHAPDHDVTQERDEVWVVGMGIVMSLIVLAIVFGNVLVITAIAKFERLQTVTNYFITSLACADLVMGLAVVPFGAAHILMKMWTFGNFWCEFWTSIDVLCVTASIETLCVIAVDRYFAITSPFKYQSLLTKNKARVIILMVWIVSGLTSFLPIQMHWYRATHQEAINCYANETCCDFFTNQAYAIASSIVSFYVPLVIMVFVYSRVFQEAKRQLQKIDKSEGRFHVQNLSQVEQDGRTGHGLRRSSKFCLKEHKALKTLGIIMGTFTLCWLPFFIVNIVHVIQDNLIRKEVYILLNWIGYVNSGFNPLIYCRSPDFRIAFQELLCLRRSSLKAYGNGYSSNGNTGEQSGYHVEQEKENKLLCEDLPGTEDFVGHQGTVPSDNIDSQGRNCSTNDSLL
T17 sequence (P04150 whole entry): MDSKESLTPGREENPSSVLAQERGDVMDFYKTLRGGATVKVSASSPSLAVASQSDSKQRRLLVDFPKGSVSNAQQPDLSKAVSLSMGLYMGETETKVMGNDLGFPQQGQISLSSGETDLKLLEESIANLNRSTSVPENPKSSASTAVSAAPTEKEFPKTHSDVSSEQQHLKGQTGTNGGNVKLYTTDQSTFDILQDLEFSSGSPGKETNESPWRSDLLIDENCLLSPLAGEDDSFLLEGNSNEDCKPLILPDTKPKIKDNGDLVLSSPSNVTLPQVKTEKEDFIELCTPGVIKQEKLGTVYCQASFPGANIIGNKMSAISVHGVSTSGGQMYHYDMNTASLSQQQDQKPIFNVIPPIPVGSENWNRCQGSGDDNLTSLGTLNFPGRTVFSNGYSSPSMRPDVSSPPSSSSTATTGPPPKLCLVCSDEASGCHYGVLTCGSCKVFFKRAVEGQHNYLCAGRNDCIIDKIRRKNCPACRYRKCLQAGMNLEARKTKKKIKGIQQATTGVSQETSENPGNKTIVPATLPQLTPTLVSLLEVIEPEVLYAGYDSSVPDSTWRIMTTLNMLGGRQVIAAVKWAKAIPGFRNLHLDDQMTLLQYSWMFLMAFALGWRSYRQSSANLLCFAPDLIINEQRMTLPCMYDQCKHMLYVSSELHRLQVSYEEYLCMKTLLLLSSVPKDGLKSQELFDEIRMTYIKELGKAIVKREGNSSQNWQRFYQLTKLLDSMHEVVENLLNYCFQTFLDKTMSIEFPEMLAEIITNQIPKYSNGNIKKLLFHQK
T12 sequence (P08172 whole entry): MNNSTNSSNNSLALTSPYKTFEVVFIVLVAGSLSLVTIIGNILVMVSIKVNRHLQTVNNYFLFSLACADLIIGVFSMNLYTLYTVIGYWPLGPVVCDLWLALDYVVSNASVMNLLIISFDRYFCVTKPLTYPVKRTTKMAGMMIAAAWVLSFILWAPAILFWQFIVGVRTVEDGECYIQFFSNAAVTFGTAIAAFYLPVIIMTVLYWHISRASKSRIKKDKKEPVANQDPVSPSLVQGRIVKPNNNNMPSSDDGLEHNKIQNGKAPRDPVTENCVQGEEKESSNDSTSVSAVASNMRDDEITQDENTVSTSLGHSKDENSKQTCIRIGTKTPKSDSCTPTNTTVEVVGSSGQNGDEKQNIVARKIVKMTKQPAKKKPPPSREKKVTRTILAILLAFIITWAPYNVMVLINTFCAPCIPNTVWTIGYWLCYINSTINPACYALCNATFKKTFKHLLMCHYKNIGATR
T15 sequence (P21554 whole entry): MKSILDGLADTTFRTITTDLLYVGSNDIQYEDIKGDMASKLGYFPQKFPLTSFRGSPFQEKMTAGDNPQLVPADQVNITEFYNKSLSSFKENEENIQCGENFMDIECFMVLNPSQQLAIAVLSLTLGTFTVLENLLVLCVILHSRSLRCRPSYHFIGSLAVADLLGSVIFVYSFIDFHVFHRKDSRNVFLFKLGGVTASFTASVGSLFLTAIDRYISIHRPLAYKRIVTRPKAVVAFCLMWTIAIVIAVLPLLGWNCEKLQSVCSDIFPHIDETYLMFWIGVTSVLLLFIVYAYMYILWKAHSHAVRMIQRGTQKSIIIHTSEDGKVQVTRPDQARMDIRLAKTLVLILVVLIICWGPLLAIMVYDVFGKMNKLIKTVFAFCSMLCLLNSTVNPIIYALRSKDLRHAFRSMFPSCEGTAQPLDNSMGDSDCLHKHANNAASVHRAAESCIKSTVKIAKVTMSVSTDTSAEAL

For orientation: IC50 means the midpoint of a concentration-inhibition curve. For orientation: inhibition means the drop in the measured response relative to a control, in per cent. In assay [1], `CCC(F)(F)C(=O)C[S+]([O-])c1ccc(C(=O)N2CCN(c3cccc(Cl)c3)[C@@H](C)[C@@H]2C)cc1Cl` (mixture of isomers) [compound 3, LEI-515] came in with an IC50 of 25 nM. Further, the “gel-based competitive ABPP (FP-TAMRA) on HEK293T membranes expressing human HSL” value in assay [2] is “confirmed by gel-based ABPP experiments using membrane fractions of HEK293T cells expressing recombinant human or mouse HSL”. Further, the “MS chemical proteomics on mouse tissues; gel-based competitive ABPP on recombina” value in assay [3] was “hormone-sensitive lipase (HSL) was identified as main off-target in lung, liver, and brain”. For the same compound, the inhibition at 10 µM is 25.3% in assay [4]; 45.2% at dopamine transporter(h); -26% in assay [5]; 27.6% in [6]; 18.3% in assay [7]; -8.1% in [8]. For the same compound, the inhibition at 10 µM was 6.6% in assay [9]; 26.8% in assay [10]; -4.2% in assay [11]; 24.2% in assay [12]; 3.5% in [13]; 22.3% in assay [14]. Also, the inhibition at 10 µM in [15] worked out at 8.1%; in [16] it was 30.2%.
